This assay can be described thus: Anti-oxidative activity, electron-donating ability by DPPH method. It is filed as biochemical. The protocol: A measurement of anti-oxidative activity was performed by using a method of measuring an electron-donating ability with DPPH method. DPPH is an abbreviation for 1,1-diphenyl-2-picrylhydrazyl, and is widely used a marker for measuring anti-oxidative activity due to its radical. The testing processes were as follows: (1) 2 ml of 0.1 mM DPPH (Sigma, D-9132) dissolved in ethanol was treated to 2 ml of sample dissolved in ethanol; (2) it was mixed for 10 minutes, and then maintained at a dark place for 30 minutes; (3) an absorbance was measured at 520 nm; and (4) the degree of anti-oxidative ability (electron-donating ability, EDA) was calculated. Vitamin E (Fluka, 95420) was used as a positive control group and Formula was as follow.
In the above formula, Cabs denotes an absorbance of a negative control group (in the case of treating only ethanol instead of sample) and Sabs denotes an absorbance of sample.

The mark [1] stands for this setting: Table 1, comparison experiment between fustin and fisetin.
[2] abbreviates: Table 4, DPPH method, absorbance at 520 nm.

Consider `O=c1c(O)c(-c2ccc(O)c(O)c2)oc2cc(O)ccc12` [Fisetin, 2-(3,4-dihydroxyphenyl)-3,7-dihydroxy-4H-chromen-4-one-hydrate], for which the “Anti-oxidative Activity (IC50, ug/ml)” value under setting [1] is 8 µg/mL and the “Anti-oxidative Activity (IC50, ug/ml)” value under setting [2] is 7.8 µg/mL. The “antioxidative activity of fisetin as compared with that of fustin” value (ratio versus fustin) was “at least 5 times”.

For `O=C1c2ccc(O)cc2O[C@H](c2ccc(O)c(O)c2)[C@H]1O` [Fustin, 2,3-Dihydrofisetin], the “Anti-oxidative Activity (IC50, ug/ml)” value by setting is: under setting [1], 33 µg/mL; under setting [2], 32 µg/mL.

(Values after patent US8551537B2, “Rhus verniciflua stokes extract having increased content of active flavonoid compound and method for preparing same” (AZI Company Ltd., priority 2010, dated 2013).)
